Earlier results as cited in patent publication US11291679B1, “Injectable, infusable, instillable ivermectin adjuvant for cancer therapies” (MOUNTAIN VALLEY MD INC., priority 2021, dated 2022).

How the values were obtained:
[1] = test system: breast tumors

| variability of cmax in blood plasma levels (blood plasma) | variation across the concentrations in the tumor environment (tumor environment) [fold] | Compound | immunogenic cancer cell death and T cell infiltration [1] | efficacy in vivo (limiting tumor growth) ([1]; single agent or combination, synergy p=0.03) |
| --- | --- | --- | --- | --- |
| 4-5 fold | ~15 | CCC(C)n1ncn(-c2ccc(N3CCN(c4ccc(OCC5COC(Cn6cncn6)(c6ccc(Cl)cc6Cl)O5)cc4)CC3)cc2)c1=O (stereo not shown) [itraconazole] | – | – |
| – | – | ivermectin | induces immunogenic cancer cell death (ICD) and robust T cell infiltration into breast tumors | neither agent alone showed efficacy in vivo |
